US20250235403A1, “COMPOSITIONS AND METHODS OF THE DELIVERY OF ACTIVE AGENTS INCLUDING NUCLEIC ACIDS” (Ohio State Innovation Foundation, priority 2021, published 2025)

Experiments:
[1] = Saturated solubility study; format: physicochemical; settings: in squalene-based NE compared with PBS solvent
Procedure: In the saturated solubility study, R848 or IVM were dissolved in PBS or formulated in NE at 2 mg/ml and incubated at room temperature for 24 hours. Insoluble solid drugs were pelleted down by centrifugation. Supernatants were collected for concentration analysis. R848 concentrations were quantified by UV-Vis spectrometry at 320 nm using a NanoDrop 2000 spectrophotometer. IVM concentrations were quantified by high-performance liquid chromatography (HPLC) using an isocratic mobile phase composed of water/methanol/acetonitrile (8:36:56, v/v/v), an C18 column (Kromasil 150-C-18, 4.6×150 mm), and PDA detection at 230 nm.

MC38 cells = test: In vitro gene regulation by R848 NE, IVM NE, R848-IVM NE; format: cell-based, murine; settings: 8 μM, 24 hours
Procedure: MC38 cells were seeded at 3×10^5 cells/well in 6-well plates 24 hours before treatments. […] R848 and IVM were both treated at 8 μM, either as free drug solution or in squalene NE. Total RNA was extracted using TRI reagent (Zymo Research) per manufacturer protocol. cDNA was prepared by high-capacity cDNA reverse transcription kit (Invitrogen, Waltham, MA, USA), and real-time qPCR (RT-qPCR) was done using SsoAdvanced™ Universal SYBRR Green Supermix (Bio-Rad Laboratories, Hercules, CA) on a QuantStudio 7 Flex Real-time PCR System. RT-qPCR primers for murine Calreticulin, Hmgb1, Lc3b, and Actb were purchased from Sigma-Aldrich. Actb was selected as the housekeeping gene control. The relative amount of RNA level was calculated and compared according to the 2−ΔΔCt method.

[2] = Evaluation of squalene as a fusogenic oil (OD500/OD600 of anionic nanoemulsions); format: physicochemical; settings: oil/DOPC/CHEMS nanoemulsions; versus medium-chain and long-chain triglyceride
Procedure: To compare the fusogenicities of different oils, simple anionic nanoemulsions were prepared. The compositions evaluated were: oil/DOPC/CHEMS (30:40:40 mole/mole). Oil was selected from squalene, medium-chain triglyceride (MCT) from Abitec (Captex 300), long-chain triglyceride (LCT, soybean oil from Sigma-Aldrich). DOPC: dioleoylphosphatidylcholine, CHEMS: cholesterol hemisuccinate. The various formulations were prepared at pH 8.0 in PBS and then diluted into various buffers with different pH values and incubated for 5 min at room temperature prior to OD measurement. OD500 and OD600 were measured to indicate particle size, with larger particle size indicating increased fusogenicity.

Row | Structure (SMILES) | increase of solubility [1] [fold] | Calreticulin mRNA level (MC38 cells) | fusogenicity [2]
1 | CC[C@H](C)[C@H]1O[C@]2(CC[C@@H]1C)C[C@@H]1C[C@@H](C/C=C(\C)[C@@H](O[C@H]3C[C@H](OC)[C@@H](O[C@H]4C[C@H](OC)[C@@H](O)[C@H](C)O4)[C@H](C)O3)[C@@H](C)/C=C/C=C3\CO[C@@H]4[C@H](O)C(C)=C[C@@H](C(=O)O1)[C@]34O)O2 [IVM, Ivermectin] | 100 | did not show significant Calreticulin regulation | 
2 | CCOCc1nc2c(N)nc3ccccc3c2n1CC(C)(C)O [R848, Resiquimod] | 2 |  | 
3 | CC(C)=CCC/C(C)=C/CC/C(C)=C/CC/C=C(\C)CC/C=C(\C)CCC=C(C)C [squalene] |  |  | improved fusogenicity
